Source: ChEMBL document CHEMBL3217677, “Synthesis, biological evaluation and X-ray crystallographic studies of imidazo[1,2-a]pyridine-based Mycobacterium tuberculosis glutamine synthetase inhibitors” (Medchemcomm, 2012)

Experiment: Inhibition of Mycobacterium tuberculosis glutamine synthetase expressed in Escherichia coli GJ4745 after 1 hr by colorimetry

SMILES	IC50
Cn1c(N2CCOCC2)nc2c1c(=O)n(Cc1ccc(Cl)c(Cl)c1)c(=O)n2C	2.5 µM
CC(C)Nc1c(-c2ccc(F)c(F)c2F)nc2ccc(Br)cn12	> 25 µM
Oc1ccc(-c2nc3ccc(Br)cn3c2NC2CCCCC2)c(Cl)c1	> 25 µM
CS(=O)(=O)c1cc(Cl)ccc1-c1nc2ccc(Br)cn2c1NC1CCCC1	> 25 µM
COc1ccc(Nc2c(-c3ccc(OCc4ccccc4)c(OCc4ccccc4)c3)nc3ccc(Br)cn23)cc1	> 25 µM
Fc1cc(-c2nc3ccc(Br)cn3c2NC2CCCC2)ccc1N1CCOCC1	> 25 µM
CCCCNc1c(-c2ccc(OCCO)cc2)nc2ccc(Br)cn12	3 µM
CN(C)c1ccc(-c2nc3ccc(Br)cn3c2NC2CCCC2)cc1	> 25 µM
COc1cccc(-c2nc3ccc(Br)cn3c2NCCN2CCOCC2)c1OC	> 25 µM
COc1cccc(-c2nc3ccc(Br)cn3c2NC2CCCC2)c1OCc1ccccc1	> 25 µM
CC(C)(C)Nc1c(-c2ccccc2O)nc2ccc(Br)cn12	> 25 µM
Brc1ccc2nc(-c3ccccc3-c3ccccc3)c(NC3CCCC3)n2c1	> 25 µM
CC(C)Nc1c(-c2cccc(N3CCOCC3)c2)nc2ccc(Br)cn12	> 25 µM
Brc1ccc2nc(-c3ccccc3)c(NCCc3ccccc3)n2c1	> 25 µM
CC(C)Nc1c(-c2ccc(OCCO)cc2)nc2ccc(Br)cn12	> 25 µM
OCCOc1ccc(-c2nc3ccc(Br)cn3c2Nc2ccc(F)cc2)cc1	> 25 µM

SMILES	IC50
OCCOc1ccc(-c2nc3ccc(Br)cn3c2NC2CCCC2)cc1	> 25 µM
CCCNc1c(-c2ccc(OCCO)cc2)nc2ccc(Br)cn12	3.9 µM
CCCCCNc1c(-c2ccc(OCCO)cc2)nc2ccc(Br)cn12	4.9 µM
CCCCNc1c(-c2ccc(N(C)CCO)cc2)nc2ccc(Br)cn12	8.3 µM
CCCCNc1c(-c2ccc(OCC(=O)O)cc2)nc2ccc(Br)cn12	1.6 µM
CCCCNc1c(-c2ccc(N(CCO)CCO)cc2)nc2ccc(Br)cn12	22 µM
CCCCNc1c(-c2ccc(OCCC)cc2)nc2ccc(Br)cn12	15 µM
CCCCNc1c(-c2ccc(OCC(N)=O)cc2)nc2ccc(Br)cn12	6.3 µM
CCCCNc1c(-c2ccc(OCCN(C)C)cc2)nc2ccc(Br)cn12	5.8 µM
CCCCNc1c(-c2ccc(OCC#N)cc2)nc2ccc(Br)cn12	10 µM
CCCCNc1c(-c2cccc(OCCO)c2)nc2ccc(Br)cn12	2.2 µM
CCCCNc1c(-c2ccc(OC)c(O)c2)nc2ccc(Br)cn12	1.9 µM
CCCCNc1c(-c2cccc(O)c2)nc2ccc(Br)cn12	1.4 µM
CCCCNc1c(-c2cccc(C(=O)O)c2)nc2ccc(Br)cn12	0.6 µM
CCCCNc1c(-c2ccc(O)c(OC)c2)nc2ccc(Br)cn12	1.5 µM
